Assay results: patent US9938245B2 (THE TRUSTEES OF COLUMBIA UNIVERSITY IN THE CITY OF NEW YORK, priority 2014, dated 2018)
pIC50: −log10 of the molar value. “Also recorded” adds a separate entry of the source.

Key:
BJeLR = assay: Concentration-dependent growth inhibition (alamar blue), isogenic BJ cell lines; format: cell-based, human; settings: for pIC50: Homo sapiens, BJeLR, 48 h, 2 days, alamar blue
HT1080 = assay: Concentration-dependent growth inhibition (alamar blue), HT1080; format: cell-based, human; settings: Homo sapiens, HT-1080, 48 h, 2 days
Experimental: Assay plates were prepared by seeding either BJ-derived cell lines or HT-1080 cells at 1,500 cells per well concentration in 36 μL growth medium. Cells in the assay plates were treated with compounds by transferring 4 μL volume from the compound plate. The final concentration of compound was typically 30 μM to 0.9 nM in this 16-point, 2-fold dilution series. Assay plates were returned to the culture incubator and maintained for 2 days before adding alamar blue. […] Plates were incubated further for 16 hours to allow reduction of alamar blue, which results in the generation of red fluorescence. The fluorescence intensity was determined using a Victor 3 plate reader (Perkin Elmer) with a 535 nm excitation filter and a 590 nm emission filter.
Percent growth inhibition (% GI) was calculated from the following formula using the alamar blue fluorescence intensity values. % GI=100*(1−(X−N)/(P−N)) X, cells treated with lethal compound; N, no cells—growth media only; P, no lethal compound—cells only.
The concentration-dependent curves were generated using Prism software. Percent growth inhibition, measured using alamar blue is shown. Error bars indicate one standard deviation of triplicate data.
The results are shown in FIG. 17 and in Table 7 below.

[1] = Compound half-life in liver microsomes; settings: for half-life at 0.5 μM: mouse, liver microsomes, pH 7.4; for metabolic stability (in words): mouse liver microsomes
system xc− = molecular target: T1, system xc− (Homo sapiens, UniProt Q9UPY5); assay: Glutamate release assay (system xc− activity); settings: read-out: IC50 glutamate release; CCF-STTG1 human astrocytoma cells, 2 hour incubation
T1 sequence (Q9UPY5 1-501): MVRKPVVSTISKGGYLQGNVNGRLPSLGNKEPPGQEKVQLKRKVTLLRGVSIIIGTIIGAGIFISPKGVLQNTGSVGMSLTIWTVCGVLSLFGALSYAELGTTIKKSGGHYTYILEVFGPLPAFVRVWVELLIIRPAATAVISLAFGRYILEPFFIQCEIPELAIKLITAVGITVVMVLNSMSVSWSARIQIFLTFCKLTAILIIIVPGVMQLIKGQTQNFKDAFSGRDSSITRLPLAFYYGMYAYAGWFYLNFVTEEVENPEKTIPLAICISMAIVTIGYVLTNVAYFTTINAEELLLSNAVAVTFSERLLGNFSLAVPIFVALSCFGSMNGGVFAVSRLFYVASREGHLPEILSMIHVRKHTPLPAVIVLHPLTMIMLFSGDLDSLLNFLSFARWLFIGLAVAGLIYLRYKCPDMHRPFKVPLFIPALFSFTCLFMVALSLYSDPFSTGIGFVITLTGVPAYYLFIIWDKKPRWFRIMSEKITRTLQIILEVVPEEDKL
T1 sequence (P08195 1-529 partner): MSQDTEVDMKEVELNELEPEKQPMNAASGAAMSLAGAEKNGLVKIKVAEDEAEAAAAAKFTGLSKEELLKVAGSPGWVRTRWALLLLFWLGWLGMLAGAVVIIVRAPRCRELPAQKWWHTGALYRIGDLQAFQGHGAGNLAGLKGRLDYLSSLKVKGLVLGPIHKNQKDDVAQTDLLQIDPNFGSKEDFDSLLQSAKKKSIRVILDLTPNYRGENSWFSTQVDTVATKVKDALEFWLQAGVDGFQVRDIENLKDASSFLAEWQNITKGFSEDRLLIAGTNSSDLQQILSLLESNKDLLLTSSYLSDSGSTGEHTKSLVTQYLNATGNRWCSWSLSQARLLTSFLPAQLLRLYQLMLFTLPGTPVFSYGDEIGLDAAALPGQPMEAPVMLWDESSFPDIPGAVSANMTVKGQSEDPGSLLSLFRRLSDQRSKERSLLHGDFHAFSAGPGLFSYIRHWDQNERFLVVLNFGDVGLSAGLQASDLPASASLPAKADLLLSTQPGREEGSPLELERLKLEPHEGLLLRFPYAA

[2] = test system: BJeH, BJeHLT, BJeLR, and DRD; assay: RSL testing in 4 BJ-derived cell lines; format: cell-based, human
[3] = test system: siGPX4-induced cell death; assay: Suppression of siGPX4-induced cell death by ferroptosis inhibitors; format: cell-based; settings: 10 μM U0126, 100 μM Vit. E, 100 μM DFOM, 50 μM ZIL
[4] = test system: HT-1080 cells, U-2 OS cells; assay: Cell viability (alamar blue, 24 hours) with modulators of erastin lethality; format: cell-based, human; settings: HT-1080 or U-2 OS cells
[5] = Pharmacokinetic profile in mice; parameters: species or system mice (C57BL/6); settings: in vivo
[6] = test system: xenograft tumors generated from BJeLR cells; format: in vivo; settings: for overt toxicity (body weight): mouse, in vivo
Source text: . To test our hypothesis that IKE represented a candidate of choice for in vivo studies, we treated xenograft tumors generated from BJeLR cells in nude mice and with IKE compared to vehicle or doxorubicin treatments (as a positive growth suppression control). […] To confirm that growth suppression caused by IKE was due to ferroptotic cell death, we looked at levels of expression of PTGS2, a gene expression marker of ferroptosis. […]

HT-1080 cells = assay: Cell death rescue by ALOX inhibitors and COX inhibitor; format: cell-based, human; settings: inhibitor concentrations of Table 2
GFP-ALOX5 = GFP-ALOX5 translocation assay; format: cell-based, human

CC(C)Oc1ccc(C=O)cc1-n1c(CN2CCN(C(=O)COc3ccc(Cl)cc3)CC2)nc2ccccc2c1=O [AE, aldehyde erastin]
pIC50 (BJeLR): 8.10 | pIC50 (HT1080): 7.41 | half-life at 0.5 μM [1]: < 5 min | pIC50 (system xc−): 7.22

C=CCN1CCN(CC(=O)c2ccc(OC(C)C)c(-n3c(CN4CCN(C(=O)COc5ccc(Cl)cc5)CC4)nc4ccccc4c3=O)c2)CC1 [APKE]
Selectivity (IC50BJeH/IC50BJeLR) (BJeLR): 1.5 | pIC50 (BJeLR): 6.71 | metabolic stability (in words) [1]: medium to poor metabolic stability | half-life at 0.5 μM [1]: 4.2 min | pIC50 (system xc−): 8.00

CCCCS(=N)(=O)CCC(N)C(=O)O (stereo not drawn) [BSO, Buthioninesulfoximine]
RSL phenotype (selective lethality in oncogenic-RAS cells) [2]: RSL phenotype was observed; also recorded: consistently showed an RSL phenotype

N#CC(=C(/N)Sc1ccccc1N)/C(C#N)=C(\N)Sc1ccccc1N [Compound U0126, U0126]
rescue of siGPX4-induced cell death [3]: rescued

CC(C)Oc1ccc(C(=O)CF)cc1-n1c(CN2CCN(C(=O)COc3ccc(Cl)cc3)CC2)nc2ccccc2c1=O [FKE]
pIC50 (HT1080): 7.21 | metabolic stability (in words) [1]: medium to poor metabolic stability | half-life at 0.5 μM [1]: 4.7 min | pIC50 (system xc−): 7.40

N[C@@H](CCC(=O)N[C@@H](CS)C(=O)NCC(=O)O)C(=O)O [GSH, reduced glutathione]
effect on erastin-induced cell death [4]: rescued cells from erastin lethality

CC(C)Oc1ccc(C(=O)Cn2ccnc2)cc1-n1c(CN2CCN(C(=O)COc3ccc(Cl)cc3)CC2)nc2ccccc2c1=O [IKE, imidazole ketone erastin]
Selectivity (IC50BJeH/IC50BJeLR) (BJeLR): 42 | pIC50 (BJeLR): 8.52 | pIC50 (HT1080): 6.50 | bioavailability ([5]; mouse, 5 mg/kg IKE, single IV bolus or single oral gavage, C57BL/6 mice): 2.49% | tumor growth, IKE compared to doxorubicin treatment ([6]; 8 day study): no significant difference | overt toxicity (body weight) [6]: No overt toxicity was observed | expression of PTGS2 relative to doxorubicin or vehicle-treated mice ([6]; qPCR, xenograft): three-fold average increase | tumor size compared to vehicle-treated ([6]; seven once-daily doses of IKE 50 mg/kg I.P., 8 day study): about one third of the size of vehicle-treated tumors | metabolic stability (in words) [1]: exceptionally high metabolic stability | pIC50 (system xc−): 7.52

COc1ccc2c(c1)c(CC(=O)O)c(C)n2C(=O)c1ccc(Cl)cc1 [Indomethacin]
suppression of erastin-induced cell death (HT-1080 cells): only minimally effective in suppressing erastin lethality

CC(=O)c1ccc(OC(C)C)c(-n2c(CN3CCN(C(=O)COc4ccc(Cl)cc4)CC3)nc3ccccc3c2=O)c1 [KE]
pIC50 (HT1080): 7.23 | half-life at 0.5 μM [1]: 3.8 min | pIC50 (system xc−): 7.52

CC(C)Oc1ccc(C(=O)CN2CCOCC2)cc1-n1c(CN2CCN(C(=O)COc3ccc(Cl)cc3)CC2)nc2ccccc2c1=O [MKE]
Selectivity (IC50BJeH/IC50BJeLR) (BJeLR): 5 | pIC50 (BJeLR): 6.37 | metabolic stability (in words) [1]: medium to poor metabolic stability | half-life at 0.5 μM [1]: 23.4 min | pIC50 (system xc−): 8.00

CC(C)Oc1ccc(C(=O)CN2CCN(C)CC2)cc1-n1c(CN2CCN(C(=O)COc3ccc(Cl)cc3)CC2)nc2ccccc2c1=O [MPKE]
Selectivity (IC50BJeH/IC50BJeLR) (BJeLR): 1.9 | pIC50 (BJeLR): 6.32 | pIC50 (system xc−): 6.52

CC(=O)N[C@@H](CS)C(=O)O [N-acetyl-cysteine]
effect on erastin-induced cell death [4]: rescued cells from erastin lethality

CC(C)Oc1ccc(C(=O)CN2CCNCC2)cc1-n1c(CN2CCN(C(=O)COc3ccc(Cl)cc3)CC2)nc2ccccc2c1=O [PKE, piperazine ketone erastin]
pIC50 (HT1080): 6.26 | bioavailability ([5]; C57BL/6, mouse, oral, 20 mg/kg): 0.75% | metabolic stability (in words) [1]: exceptionally high metabolic stability | half-life at 0.5 μM [1]: > 90 min | pIC50 (system xc−): 7.00

COc1ccc(CN2CCN(CC(=O)c3ccc(OC(C)C)c(-n4c(CN5CCN(C(=O)COc6ccc(Cl)cc6)CC5)nc5ccccc5c4=O)c3)CC2)cc1 [PMB-PKE]
Selectivity (IC50BJeH/IC50BJeLR) (BJeLR): 13 | pIC50 (BJeLR): 7.89 | metabolic stability (in words) [1]: medium to poor metabolic stability | half-life at 0.5 μM [1]: 3.4 min | pIC50 (system xc−): 8.40

CC(C)Oc1ccc(C(=O)C(F)(F)F)cc1-n1c(CN2CCN(C(=O)COc3ccc(Cl)cc3)CC2)nc2ccccc2c1=O [TFKE]
pIC50 (HT1080): 6.75 | pIC50 (system xc−): 7.70

CC(c1cc2ccccc2s1)N(O)C(N)=O (stereo not drawn) [ZIL, Zileuton]
rescue of siGPX4-induced cell death [3]: rescued

C[C@H]1O[C@@H](O[C@H]2[C@@H](O)C[C@H](O[C@H]3[C@@H](O)C[C@H](O[C@H]4CC[C@@]5(C)[C@H](CC[C@@H]6[C@@H]5C[C@@H](O)[C@]5(C)[C@@H](C7=CC(=O)OC7)CC[C@]65O)C4)O[C@@H]3C)O[C@@H]2C)C[C@H](O)[C@@H]1O [digoxin, Digoxin]
translocation of GFP-ALOX5 to the nuclear membrane (GFP-ALOX5): induced GFP-ALOX5 translocation

COc1cccc2c1C(=O)c1c(O)c3c(c(O)c1C2=O)C[C@@](O)(C(=O)CO)C[C@@H]3O[C@H]1C[C@H](N)[C@H](O)[C@H](C)O1 [doxorubicin, reference compound]
overt toxicity (body weight) [6]: No overt toxicity was observed | increase in expression of CDKN1A relative to IKE-treated or vehicle-treated mice ([6]; qPCR, xenograft): 5 fold

C[C@H](CCC(=O)O)C[C@H](C)C[C@H](C)C(=O)/C=C(\O)[C@H](C)C[C@H](C)C/C=C/[C@@H](C)[C@@H](O)[C@@H](C)[C@@H](O)C[C@@H]1CC[C@@](C)([C@H]2CC[C@@](C)([C@@H](C)O)O2)O1 [ionomycin]
translocation of GFP-ALOX5 to the nuclear membrane (GFP-ALOX5): induced localization of GFP-ALOX5 to the nuclear membrane in all BJ-derived cell lines

CN[C@@H]1C[C@H]2O[C@@](C)([C@@H]1OC)n1c3ccccc3c3c4c(c5c6ccccc6n2c5c31)C(=O)NC4 [staurosporine, Staurosporine]
translocation of GFP-ALOX5 to the nuclear membrane (GFP-ALOX5): did not

Vitamin E [Vit. E]
rescue of siGPX4-induced cell death [3]: rescued

lysophosphatidyl choline [lyso-PC]
RSL phenotype (selective lethality in oncogenic-RAS cells) [2]: did not show differential cytotoxicity | effect on erastin-induced cell death [4]: modestly sensitized cells to erastin-induced cell death
